Data reported in US20250179025A1, “CRYSTALLINE FORM OF DAROLUTAMIDE” (QUÍMICA SINTÉTICA, S.A., priority 2022, published 2025).
Values after ≈ are worked out from the molar mass of the structure shown. Read-outs that look alike come from different tables or passages of the source.

Legend:
[1] = Determination of specific surface area (SSA), multi-point nitrogen adsorption BET; format: physicochemical; settings: samples vacuum dried overnight at 45° C.; relative pressure 0.05-0.3 p/p0; eleven linear points
Source text: The term “about” includes the range of experimental errors, which can normally occur performing a measurement, e.g. ±5% or ±2% or ±1%. Sometimes, such a range can lie within the experimental error, typical of standard methods used for the measurement and/or determination of a given value or range. Particularly, the measurement uncertainty for the Multi-Point B.E.T. specific surface area parameter is equal to 15% for a SSA value greater than 2 m^2/g, and 20% for a SSA less than 2 m^2/g. It is expressed as extended uncertainty obtained by multiplying standard uncertainty by the coverage factor k equal to 2, corresponding to confidence level of about 95%. The uncertainty is related to the method of analysis and obtained as percent value from the analysis of a representative group of samples in the measurement range of the instrument.
Unless otherwise indicated, the data relative to the peaks in the XRPD pattern are meant within the common uncertainty due to the instrument measurement, typically ±0.2 degrees 2θ, when collected with the Kα radiation of copper (λ=1.5419 Å) at room temperature. The present invention provides, in one aspect, a new form of N-[(2S)-1-[3-(3-chloro-4-cyanophenyl)-1H-pyrazol-1-yl]-propan-2-yl]-5-(1-hydroxyethyl)-1H-pyrazole-3-carboxamide (darolutamide), herein called nanocrystalline form or NC form or Form NC, said nanocrystalline form being characterized by having specific surface area (SSA) in the range from about 40 m^2/g to about 150 m^2/g, preferably from about 50 m^2/g to about 135 m^2/g, more preferably from about 60 m^2/g to about 135 m^2/g analyzed using the multi-point nitrogen adsorption technique based on the Brunauer, Emmett and Teller (BET) theory, for example using TriStar (II) automated gas adsorption analyzer, (Micromeritics, Inc.). The samples are suitably vacuum dried overnight at 45° C. The volumetric method can be used at the relative pressure range of 0.05-0.3 p/p0 as reported in the experimental part. Specific surface area is an important physical property for an active pharmaceutical ingredient. This parameter can greatly influence the process of preparation of drugs, such as filtration, purification, blending, tableting as well as the characteristics of the active pharmaceutical ingredient especially its dissolution rate and, in turn, its bio-availability as generally known in the art, e.g. from Kyung Rok Chu et al. Effect of particle size on the dissolution behaviours of poorly water-soluble drugs, Arch. Pharm. Res., 2012 July, 35(7), 1187-95, DOI 10.1007/s12272-012-0709-3.
The specific surface area was measured using the multi-point nitrogen adsorption technique based on the Brunauer, Emmett and Teller (BET) theory using TriStar (II) automated gas adsorption analyzer (Micromeritics, Inc.). All the samples were dried under vacuum overnight hours at 45° C. The volumetric method was applied at the relative pressure range 0.05-0.3 p/p^0, and the Specific Surface Area values were calculated in said pressure range using “Multi-Point BET” calculation method based on eleven linear points.

[2] = values reported in WO 2018/162793 or by its applicant in annex 1 during European prosecution; cited from earlier work
[3] = poorly soluble in the physiological pH range; cited from earlier work
[4] = Stability study at 40° C. and 75% RH (HPLC purity, XRPD); format: physicochemical; settings: double PE bag in HDPE bottle, 1, 3, 6 and 12 months
Description: 5 aliquots of about 1 g of nanocrystalline form of present invention were stored at the following conditions wherein RH is referred to relative humidity: • 40° C. and 75% RH, double PE bag in HDPE bottle
The sample were analysed before the storage (To), after 1 month, 3 months, 6 months and 12 months using high performance chromatography (HPLC) method to control the purity and X-ray powder diffractogram (XRPD) to evaluate any change in crystalline form.

SMILES: CC(O)c1cc(C(=O)N[C@@H](C)Cn2ccc(-c3ccc(C#N)c(Cl)c3)n2)[nH]n1 (stereo partly drawn) [Example 23, darolutamide]
- Specific Surface Area (SSA) Multi-point BET [1]: 46.0 m^2/g

SMILES: CC(O)c1cc(C(=O)N[C@@H](C)Cn2ccc(-c3ccc(C#N)c(Cl)c3)n2)[nH]n1 (stereo partly drawn) [crystalline rounded particles, darolutamide]
- solubility concentration (5 min): 20 µg/mL

SMILES: CC(O)c1cc(C(=O)N[C@@H](C)Cn2ccc(-c3ccc(C#N)c(Cl)c3)n2)[nH]n1 (single isomer, unassigned) [Example 4, darolutamide]
- Concentration of Darolutamide in saturated solution (0 min, pH 1): 0 µg/mL
- Concentration of Darolutamide in saturated solution (0 min, pH 7.5): 0 µg/mL
- Concentration of Darolutamide in saturated solution (5 min, pH 1): 137 µg/mL
- Concentration of Darolutamide in saturated solution (5 min, pH 7.5): 157 µg/mL
- Concentration of Darolutamide in saturated solution (10 min, pH 1): 146 µg/mL
- Concentration of Darolutamide in saturated solution (10 min, pH 7.5): 149 µg/mL
- Concentration of Darolutamide in saturated solution (60 min, pH 1): 113 µg/mL
- Concentration of Darolutamide in saturated solution (60 min, pH 7.5): 109 µg/mL
- Specific Surface Area (SSA) Multi-point BET [1]: 111.7 m^2/g

SMILES: CC(O)c1cc(C(=O)N[C@@H](C)Cn2ccc(-c3ccc(C#N)c(Cl)c3)n2)[nH]n1 (stereo partly drawn) [Comparative example 1b, darolutamide]
- Specific Surface Area (SSA) Multi-point BET [1]: 29.5 m^2/g

SMILES: CC(O)c1cc(C(=O)N[C@@H](C)Cn2ccc(-c3ccc(C#N)c(Cl)c3)n2)[nH]n1 (stereo partly drawn) [Crystalline rounded particles sample B unmilled] [darolutamide]
- Specific Surface Area (SSA) Multi-point BET [2]: 12 m^2/g

SMILES: CC(O)c1cc(C(=O)N[C@@H](C)Cn2ccc(-c3ccc(C#N)c(Cl)c3)n2)[nH]n1 (stereo partly drawn) [Example 11, darolutamide]
- Specific Surface Area (SSA) Multi-point BET [1]: 66.6 m^2/g

SMILES: CC(O)c1cc(C(=O)N[C@@H](C)Cn2ccc(-c3ccc(C#N)c(Cl)c3)n2)[nH]n1 (stereo partly drawn) [Comparative example 1a, darolutamide]
- Concentration of Darolutamide in saturated solution (0 min, pH 1): 0 µg/mL
- Concentration of Darolutamide in saturated solution (0 min, pH 7.5): 0 µg/mL
- Concentration of Darolutamide in saturated solution (5 min, pH 1): 20 µg/mL
- Concentration of Darolutamide in saturated solution (5 min, pH 7.5): 20 µg/mL
- Concentration of Darolutamide in saturated solution (10 min, pH 1): 20 µg/mL
- Concentration of Darolutamide in saturated solution (10 min, pH 7.5): 21 µg/mL
- Concentration of Darolutamide in saturated solution (60 min, pH 1): 17 µg/mL
- Concentration of Darolutamide in saturated solution (60 min, pH 7.5): 19 µg/mL
- Specific Surface Area (SSA) Multi-point BET [1]: 26.6 m^2/g

SMILES: CC(O)c1cc(C(=O)N[C@@H](C)Cn2ccc(-c3ccc(C#N)c(Cl)c3)n2)[nH]n1 (stereo partly drawn) [Example 10, darolutamide]
- Specific Surface Area (SSA) Multi-point BET [1]: 121.6 m^2/g

SMILES: CC(O)c1cc(C(=O)N[C@@H](C)Cn2ccc(-c3ccc(C#N)c(Cl)c3)n2)[nH]n1 (stereo partly drawn) [Crystalline rounded particles sample A unmilled] [darolutamide]
- Specific Surface Area (SSA) Multi-point BET [2]: 13 m^2/g

SMILES: CC(O)c1cc(C(=O)N[C@@H](C)Cn2ccc(-c3ccc(C#N)c(Cl)c3)n2)[nH]n1 (stereo partly drawn) [darolutamide, N-[(2S)-1-[3-(3-chloro-4-cyanophenyl)-1H-pyrazol-1-yl]-propan-2-yl]-5-(1-hydroxyethyl)-1H-pyrazole-3-carboxamide]
- Biopharmaceutics Classification System (BCS) class [3]: class II

SMILES: CC(O)c1cc(C(=O)N[C@@H](C)Cn2ccc(-c3ccc(C#N)c(Cl)c3)n2)[nH]n1 (stereo partly drawn) [Comparative example 2, darolutamide]
- Concentration of Darolutamide in saturated solution (0 min, pH 1): 0 µg/mL
- Concentration of Darolutamide in saturated solution (0 min, pH 7.5): 0 µg/mL
- Concentration of Darolutamide in saturated solution (5 min, pH 1): 23 µg/mL
- Concentration of Darolutamide in saturated solution (5 min, pH 7.5): 22 µg/mL
- Concentration of Darolutamide in saturated solution (10 min, pH 1): 22 µg/mL
- Concentration of Darolutamide in saturated solution (10 min, pH 7.5): 18 µg/mL
- Concentration of Darolutamide in saturated solution (60 min, pH 1): 22 µg/mL
- Concentration of Darolutamide in saturated solution (60 min, pH 7.5): 21 µg/mL
- Specific Surface Area (SSA) Multi-point BET [1]: 11.6 m^2/g

SMILES: CC(O)c1cc(C(=O)N[C@@H](C)Cn2ccc(-c3ccc(C#N)c(Cl)c3)n2)[nH]n1 (stereo partly drawn) [Comparative example 1c, darolutamide]
- Specific Surface Area (SSA) Multi-point BET [1]: 34.4 m^2/g

SMILES: CC(O)c1cc(C(=O)N[C@@H](C)Cn2ccc(-c3ccc(C#N)c(Cl)c3)n2)[nH]n1 (stereo partly drawn) [Example 24, darolutamide]
- Specific Surface Area (SSA) Multi-point BET [1]: 43.8 m^2/g

SMILES: CC(O)c1cc(C(=O)N[C@@H](C)Cn2ccc(-c3ccc(C#N)c(Cl)c3)n2)[nH]n1 (single isomer, unassigned) [Example 3, darolutamide]
- Concentration of Darolutamide in saturated solution (0 min, pH 1): 0 µg/mL
- Concentration of Darolutamide in saturated solution (0 min, pH 7.5): 0 µg/mL
- Concentration of Darolutamide in saturated solution (5 min, pH 1): 159 µg/mL
- Concentration of Darolutamide in saturated solution (5 min, pH 7.5): 162 µg/mL
- Concentration of Darolutamide in saturated solution (10 min, pH 1): 162 µg/mL
- Concentration of Darolutamide in saturated solution (10 min, pH 7.5): 155 µg/mL
- Concentration of Darolutamide in saturated solution (60 min, pH 1): 117 µg/mL
- Concentration of Darolutamide in saturated solution (60 min, pH 7.5): 132 µg/mL
- Specific Surface Area (SSA) Multi-point BET [1]: 134.0 m^2/g

SMILES: CC(O)c1cc(C(=O)N[C@@H](C)Cn2ccc(-c3ccc(C#N)c(Cl)c3)n2)[nH]n1 (single isomer, unassigned) [Example 5, darolutamide]
- Concentration of Darolutamide in saturated solution (0 min, pH 1): 0 µg/mL
- Concentration of Darolutamide in saturated solution (0 min, pH 7.5): 0 µg/mL
- Concentration of Darolutamide in saturated solution (5 min, pH 1): 117 µg/mL
- Concentration of Darolutamide in saturated solution (5 min, pH 7.5): 128 µg/mL
- Concentration of Darolutamide in saturated solution (10 min, pH 1): 126 µg/mL
- Concentration of Darolutamide in saturated solution (10 min, pH 7.5): 132 µg/mL
- Concentration of Darolutamide in saturated solution (60 min, pH 1): 113 µg/mL
- Concentration of Darolutamide in saturated solution (60 min, pH 7.5): 109 µg/mL
- Specific Surface Area (SSA) Multi-point BET [1]: 66.8 m^2/g

SMILES: CC(O)c1cc(C(=O)N[C@@H](C)Cn2ccc(-c3ccc(C#N)c(Cl)c3)n2)[nH]n1 (stereo partly drawn) [Form I, darolutamide]
- Specific Surface Area (SSA) Multi-point BET [2]: 22.1 m^2/g
- solubility concentration (5 min): 20 µg/mL (≈ 50.1 µM)

SMILES: CC(O)c1cc(C(=O)N[C@@H](C)Cn2ccc(-c3ccc(C#N)c(Cl)c3)n2)[nH]n1 (stereo partly drawn) [nanocrystalline form, N-[(2S)-1-[3-(3-chloro-4-cyanophenyl)-1H-pyrazol-1-yl]-propan-2-yl]-5-(1-hydroxyethyl)-1H-pyrazole-3-carboxamide]
- solubility concentration (5 min): 120 to 160 µg/mL
- chemical stability: purity by HPLC versus initial profile at T0 [4]: does not present a significant worsening of the purity
- physical stability: change in crystalline form by XRPD [4]: no signs of transformation into a different crystalline form
